Data on 25 molecules can be found in ChEMBL document CHEMBL5257080, “Optimization of physicochemical properties of pyrrolidine GPR40 AgoPAMs results in a differentiated profile with improved pharmacokinetics and reduced off-target activities” (Bioorg Med Chem, 2023).

The target in data set [1] is T1, Free fatty acid receptor 1 (Homo sapiens, UniProt O14842). As to the kind of experiment: Positive allosteric modulation of human GPR40 by calcium based FLIPR analysis.
The target in data set [2] is T2, Peroxisome proliferator-activated receptor gamma (Homo sapiens, UniProt P37231).
T2 sequence (P37231 whole entry): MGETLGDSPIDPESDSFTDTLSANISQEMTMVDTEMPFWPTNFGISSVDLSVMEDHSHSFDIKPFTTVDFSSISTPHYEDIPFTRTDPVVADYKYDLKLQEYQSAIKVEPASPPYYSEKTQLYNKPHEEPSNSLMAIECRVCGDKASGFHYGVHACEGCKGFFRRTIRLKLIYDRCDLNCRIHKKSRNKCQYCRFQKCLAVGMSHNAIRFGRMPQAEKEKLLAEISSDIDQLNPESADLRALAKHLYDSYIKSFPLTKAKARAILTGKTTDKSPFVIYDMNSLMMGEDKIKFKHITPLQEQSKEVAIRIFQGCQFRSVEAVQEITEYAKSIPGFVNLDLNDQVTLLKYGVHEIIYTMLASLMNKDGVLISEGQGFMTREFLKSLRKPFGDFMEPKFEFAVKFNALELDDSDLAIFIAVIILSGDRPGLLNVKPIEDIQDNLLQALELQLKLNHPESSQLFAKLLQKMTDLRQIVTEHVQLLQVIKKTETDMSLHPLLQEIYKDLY
Nature of the data set: Transactivation of PPARgamma (unknown origin).

A short description of data set [3]: Lipophilicity, logD of compound. The following applies: octanol/water. It is filed as physicochemical.
A short description of data set [4]: Toxicity in rat assessed as change in spontaneous locomotor activity. The following applies: in vivo.
A short description of data set [5]: Toxicity in rat. The following applies: in vivo.
The nature of data set [6]: Toxicity in Sprague-Dawley rat assessed as hypoglycemia at 80 mg/kg, po measured for 24 hrs by glucometer analysis. It is filed as organism-based. The following applies: in vivo.
A short description of data set [7]: Toxicity in rat assessed as change in heart rate. The following applies: in vivo.
Data set [8] concerns the target T1, Free fatty acid receptor 1. Nature of the data set: Positive allosteric modulation of human GPR40 expressed in HEK293 cells assessed as maximum efficacy relative to control. The following applies: filed as positive allosteric modulator. It is filed as cell-based.
Data set [9] can be described thus: Metabolic stability in mouse liver microsome assessed as parent compound remaining after 10 mins. It counts as ADME. The following applies: liver microsomes, read-out: Stability.
The nature of data set [10]: Drug concentration in mouse plasma measured after 3 hrs. It is filed as ADME.
Data set [11] has as its target Free fatty acid receptor 1 (Mus musculus, UniProt Q76JU9). As to the kind of experiment: Positive allosteric modulation of mouse GPR40.
The next data set relates to Mus musculus. Nature of the data set: Anti-hyperglycemic activity against mouse assessed as reduction in plasma glucose level at 3 mg/kg, po by OGTT analysis. It counts as functional, organism-based.
Data set [12] concerns the target T1, Free fatty acid receptor 1. As to the kind of experiment: Positive allosteric modulation of human GPR40 expressed in HEK293 cells. It is filed as cell-based.
A short description of data set [13]: Cmax in rat at 240 mg/kg qd. Also on record: dose 240 mg/kg. It counts as ADME, organism-based. The following applies: in vivo.
The nature of data set [14]: AUC (0 to 24 hrs) in rat at 800 mg/kg qd. It is filed as ADME, organism-based. Also on record: dose 800 mg/kg. The following applies: in vivo.
Data set [15] can be described thus: Cmax in rat at 800 mg/kg qd. It is filed as ADME, organism-based. Also on record: dose 800 mg/kg. The following applies: in vivo.
The nature of data set [16]: Permeability of compound across apical to basolateral side in dog MDCK cells. It counts as ADME, cell-based, Canis lupus familiaris. The following applies: read-out: permeability.
The nature of data set [17]: AUC (0 to 24 hrs) in rat at 80 mg/kg qd. It counts as ADME, organism-based. Also on record: dose 80 mg/kg. The following applies: in vivo.
Data set [18] is described as follows: Cmax in rat at 40 mg/kg bid. It counts as ADME, organism-based. The following applies: in vivo. Also on record: dose 40 mg/kg.
The nature of data set [19]: AUC (0 to 24 hrs) in rat at 240 mg/kg qd. Also on record: dose 240 mg/kg. The following applies: in vivo. It is filed as ADME, organism-based.
Data set [20] in a line: Tmax in rat at 240 mg/kg qd. It counts as ADME, organism-based. The following applies: in vivo.
Data set [21] can be described thus: Cmax in rat at 80 mg/kg qd. It counts as ADME, organism-based. Also on record: dose 80 mg/kg. The following applies: in vivo.
Data set [22] in a line: Tmax in rat at 800 mg/kg qd. The following applies: in vivo. It counts as ADME, organism-based.
Data set [23] is described as follows: Tmax in rat at 80 mg/kg qd. It counts as ADME, organism-based. The following applies: in vivo.
The nature of data set [24]: AUC (0-7hrs) in mouse at 1 mg/kg. It is filed as ADME, organism-based. Also on record: dose 1 mg/kg. The following applies: in vivo.
The nature of data set [25]: Cmax in mouse at 1 mg/kg. It is filed as ADME, organism-based. Also on record: dose 1 mg/kg. The following applies: in vivo.

The source made the active and inactive calls. No cut-off for these calls is given here.

T1 sequence (O14842 whole entry): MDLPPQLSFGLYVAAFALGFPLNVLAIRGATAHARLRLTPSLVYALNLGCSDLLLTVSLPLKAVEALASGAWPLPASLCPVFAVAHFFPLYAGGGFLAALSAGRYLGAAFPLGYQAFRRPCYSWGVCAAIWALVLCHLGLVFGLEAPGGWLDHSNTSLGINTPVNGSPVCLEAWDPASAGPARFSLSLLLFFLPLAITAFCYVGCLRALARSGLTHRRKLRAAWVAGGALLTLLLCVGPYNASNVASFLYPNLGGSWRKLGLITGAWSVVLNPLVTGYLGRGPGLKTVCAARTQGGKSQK
Sequence of Free fatty acid receptor 1 (Mus musculus, UniProt Q76JU9) (Q76JU9 whole entry): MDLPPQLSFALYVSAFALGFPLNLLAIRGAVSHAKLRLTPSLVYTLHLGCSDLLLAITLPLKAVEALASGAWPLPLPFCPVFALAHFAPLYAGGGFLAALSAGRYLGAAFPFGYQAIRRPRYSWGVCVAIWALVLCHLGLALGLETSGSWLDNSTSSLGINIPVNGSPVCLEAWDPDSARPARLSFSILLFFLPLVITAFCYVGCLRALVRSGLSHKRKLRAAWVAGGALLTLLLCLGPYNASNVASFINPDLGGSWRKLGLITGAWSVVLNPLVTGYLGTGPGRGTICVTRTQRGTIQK

Regarding `COc1cc(N2CC[C@@H](Oc3ccc(N4CC[C@@H](C)[C@@H]4CC(=O)O)cc3)[C@H](C)C2)c(Cl)cn1`, the EC50 in data set [1] is 110 nM; in [2] it was over 48000 nM.

Turning to `CCOc1ccc(F)c(N2CC[C@@H](Oc3ccc(N4C[C@H](C(F)(F)F)C[C@@H]4CC(=O)O)cc3)[C@H](CC(C)C)C2)c1`, the EC50 in [1] amounted to 430 nM.

For the molecule `CCCCCO[C@H]1CN(c2ccc(O[C@@H]3CCN(c4cc(OC)ncc4Cl)C[C@H]3C)cc2)[C@@H](CC(=O)O)[C@@H]1C`, the concentration for a half-maximal effect (EC50) in data set [1] was found to be 190 nM.

Turning to `CCOc1ccc(F)c(N2CCC(Oc3ccc(N4C[C@H](OCCCOC)C[C@@H]4CC(=O)O)cc3)CC2)c1`, in [3], the logD was 0.81. For the same molecule, in [2], the EC50 is over 47000 nM.

Turning to `COc1cc(N2CC[C@@H](Oc3ccc(N4C[C@H](OCCCC#N)[C@@H](C)[C@@H]4CC(=O)O)cc3)[C@H](C)C2)c(Cl)cn1`, in data set [1], the EC50 was 120 nM.

For `CCOc1ccc(F)c(N2CC[C@@H](Oc3ccc(N4C[C@H](OCCCOC)C[C@@H]4CC(=O)O)cc3)[C@H](C)C2)c1`, the logD in data set [3] amounted to 1.3.

On to `COc1ccc(F)c(-c2ccc(Cc3ccc(N4C[C@H](C(F)(F)F)C[C@@H]4CC(=O)O)cc3)c(C)c2)c1`, for which the Activity result in [4] is “Non-Toxic”; in data set [5], “Toxic”; in [6], “Non-Toxic”; in [7], “Non-Toxic”. For the same molecule, the Emax in [8] was found to be 97%.

With `CCOc1ccc(F)c(N2CC[C@@H](Oc3ccc(N4C[C@H](OC)C[C@@H]4CC(=O)O)cc3)[C@H](C)C2)c1`, a half-maximal response in data set [2] (EC50) required 12000 nM.

On to `COc1cc(N2CC[C@@H](Oc3ccc(N4C[C@H](F)[C@@H](C)[C@@H]4CC(=O)O)cc3)[C@H](C)C2)c(Cl)cn1`, for which the values for the EC50 in data set [1], in data set [2] and in data set [11] were 29 nM, over 48000 nM and 48 nM, respectively. Also, the remaining at 10 min in [9] amounted to 97%. For the same molecule, the concentration at 3 h in data set [10] stood at 0.156 µM. Moreover, in the data set on Mus musculus, the outcome was inactive.

Turning to `COc1ccc(F)c(N2CCC(Oc3ccc(N4CCC[C@@H]4CC(=O)O)cc3)CC2)c1`, the results for the EC50 in data set [2] and in [12] were over 50000 nM and 1400 nM, respectively.

The molecule `CCOc1ccc(F)c(N2CC[C@@H](Oc3ccc(N4C[C@H](C(F)(F)F)C[C@@H]4CC(=O)O)cc3)[C@H](C)C2)c1` came in with an EC50 in data set [2] of over 48000 nM.

Take `CCOc1ccc(F)c(N2CC[C@@H](Oc3ccc(N4CC(C)(C)C[C@@H]4CC(=O)O)cc3)[C@H](C)C2)c1`: the EC50 in data set [2] is over 48000 nM.

On to `CCOc1ccc(F)c(N2CC[C@@H](Oc3ccc(N4C[C@H](C(F)(F)F)C[C@@H]4CC(=O)O)cc3)[C@H](Cc3ccccc3)C2)c1`, for which the EC50 in [1] was 740 nM.

As for `COCCOCO[C@H]1CN(c2ccc(O[C@@H]3CCN(c4cc(OC)ncc4Cl)C[C@H]3C)cc2)[C@@H](CC(=O)O)[C@@H]1C`, the EC50 in data set [1] was 180 nM.

For `COc1ccc(F)c(-c2ccc(Cc3ccc(N4N=C(C(F)(F)F)[C@@H](C)[C@@H]4CC(=O)O)cc3)c(C)c2)c1`, the Cmax in data set [13] amounted to 30 µM; in data set [15] it was 65 µM; in data set [18] it was 30 µM; in data set [21], 30 µM. The figures for the AUC in data set [14], in [17] and in [19] were 1430 µM·h, 243 µM·h and 1080 µM·h, respectively. The Papp A→B in data set [16] came out at 5.7 ×10⁻⁶ cm/s. Besides, the Activity result in [6] was “Non-Toxic”. In addition, the Tmax turned out to be 6 h in data set [20], 48 h in [22] and 4 h in data set [23].

Consider `CCOc1ccc(F)c(N2CC[C@@H](Oc3ccc(N4C[C@H](OCCCOC)[C@@H](C)[C@@H]4CC(=O)O)cc3)[C@H](C)C2)c1`, for which the EC50 was 51 nM in data set [1], over 47000 nM in data set [2] and 18 nM in [11]. The same molecule gave a logD in data set [3] of 1.82. Moreover, in [24], the AUC(0-t) was 2.9 µM·h. The same molecule yielded a Cmax in data set [25] of 1.4 µM.

For the molecule `COc1cc(N2CC[C@@H](Oc3ccc(N4C[C@H](C(F)(F)F)[C@@H](C)[C@@H]4CC(=O)O)cc3)[C@H](C)C2)c(Cl)cn1`, the EC50 in data set [2] was over 48000 nM.

As for `CCOc1ccc(F)c(N2CC[C@@H](Oc3ccc(N4C[C@H](c5ccccc5)C[C@@H]4CC(=O)O)cc3)[C@H](C)C2)c1`, the values for the EC50 in data set [1] and in data set [2] were 230 nM and over 48000 nM, respectively.

`CCOc1ccc(F)c(N2CCC(Oc3ccc(N4C[C@H](Oc5cccc(OC)c5)C[C@@H]4CC(=O)O)cc3)CC2)c1` gave a logD in [3] of 2.15. This molecule displayed an EC50 in data set [2] of over 47000 nM.

`COc1ccc(F)c(N2CCC(Oc3ccc(N4CCC[C@H]4CC(=O)O)cc3)CC2)c1`: the EC50 in data set [2] is over 50000 nM; in data set [12] it was 4100 nM.

For the molecule `CCOc1ccc(F)c(N2CC[C@@H](Oc3ccc(N4C[C@H](OC)[C@@H](C)[C@@H]4CC(=O)O)cc3)[C@H](C)C2)c1`, the EC50 in data set [2] is over 48000 nM. In data set [24], this molecule displayed an AUC(0-t) of 0.5 µM·h. Besides, the Cmax in data set [25] worked out at 0.5 µM.

Consider `CCOc1ccc(F)c(N2CCC(Oc3ccc(N4C[C@H](Oc5ccccc5)C[C@@H]4CC(=O)O)cc3)CC2)c1`, for which the logD in data set [3] stood at 2.44. This molecule also registered an EC50 in data set [2] of over 47000 nM.

Molecule `COc1cc(N2CC[C@@H](Oc3ccc(N4C[C@H](F)[C@@H](OC)[C@@H]4CC(=O)O)cc3)[C@H](C)C2)c(Cl)cn1` had an EC50 in [2] of over 48000 nM.

Consider `CCOc1ccc(F)c(N2CC[C@@H](Oc3ccc(N4C[C@H](C(F)(F)F)C[C@@H]4CC(=O)O)cc3)[C@H](CC)C2)c1`, for which the EC50 in data set [1] is 430 nM.

Take `CCOc1ccc(F)c(N2CC[C@@H](Oc3ccc(N4C[C@](C)(OC)C[C@@H]4CC(=O)O)cc3)[C@H](C)C2)c1`: in data set [1], the EC50 was 220 nM.
